In one experiment the target is T1, ALK5 (Homo sapiens, UniProt P36897).
T1 sequence (P36897 34-503): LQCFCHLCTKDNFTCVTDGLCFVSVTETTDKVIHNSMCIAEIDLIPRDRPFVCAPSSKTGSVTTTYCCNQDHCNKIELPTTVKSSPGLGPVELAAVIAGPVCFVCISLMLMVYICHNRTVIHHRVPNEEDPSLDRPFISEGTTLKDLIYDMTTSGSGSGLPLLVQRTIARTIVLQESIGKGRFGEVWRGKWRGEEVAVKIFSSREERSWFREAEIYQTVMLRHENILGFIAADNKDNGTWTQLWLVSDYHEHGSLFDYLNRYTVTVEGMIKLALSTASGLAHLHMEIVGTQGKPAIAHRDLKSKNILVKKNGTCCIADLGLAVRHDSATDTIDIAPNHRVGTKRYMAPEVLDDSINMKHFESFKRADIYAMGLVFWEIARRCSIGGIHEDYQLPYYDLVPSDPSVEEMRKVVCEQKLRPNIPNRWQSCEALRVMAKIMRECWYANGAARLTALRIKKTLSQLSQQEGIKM
The experiment is described as follows: recombinant kinase assays (IC50 and Ki). In kind it is biochemical. The conditions noted are these: versus Compound N. The source says:
Compound N was compared to Compound C in a number of in vitro assays.

A further experiment relates to IPF disease progression. The conditions noted are these: patients with mild-moderate disease; cited from earlier work.

With `CNCCOc1ccc(-c2cc(-c3c[nH]nc3-c3cccc(C)n3)ccn2)cc1` [Compound C, N-methyl-2-(4-(4-(3-(6-methylpyridin-2-yl)-1H-pyrazol-4-yl)pyridin-2-yl)phenoxy)ethan-1-amine], the “fold more potent than Compound N in the kinase assays” value on ALK5 is listed as 10 fold.

In the case of `COC(=O)c1ccc2c(c1)NC(=O)/C2=C(\Nc1ccc(N(C)C(=O)CN2CCN(C)CC2)cc1)c1ccccc1` [nintedanib], the “reduced risk of IPF disease progression” value in the experiment with IPF disease progression is given as 50%. Take `Cc1ccc(=O)n(-c2ccccc2)c1` [pirfenidone]: the “reduced risk of IPF disease progression” value with IPF disease progression is 50%.
